Consider 24 compounds from patent US4826814A, “Tripeptide derivatives” (Dainippon Pharmaceutical Co., Ltd., priority 1986, dated 1989).

The experiment has as its target T1, ACE preparation (rabbit lung) (Oryctolagus cuniculus, UniProt P12822).
T1 construct: an ACE preparation (rabbit lung); from tissue; host or cells: rabbit lung
T1 sequence (P12822 34-1310): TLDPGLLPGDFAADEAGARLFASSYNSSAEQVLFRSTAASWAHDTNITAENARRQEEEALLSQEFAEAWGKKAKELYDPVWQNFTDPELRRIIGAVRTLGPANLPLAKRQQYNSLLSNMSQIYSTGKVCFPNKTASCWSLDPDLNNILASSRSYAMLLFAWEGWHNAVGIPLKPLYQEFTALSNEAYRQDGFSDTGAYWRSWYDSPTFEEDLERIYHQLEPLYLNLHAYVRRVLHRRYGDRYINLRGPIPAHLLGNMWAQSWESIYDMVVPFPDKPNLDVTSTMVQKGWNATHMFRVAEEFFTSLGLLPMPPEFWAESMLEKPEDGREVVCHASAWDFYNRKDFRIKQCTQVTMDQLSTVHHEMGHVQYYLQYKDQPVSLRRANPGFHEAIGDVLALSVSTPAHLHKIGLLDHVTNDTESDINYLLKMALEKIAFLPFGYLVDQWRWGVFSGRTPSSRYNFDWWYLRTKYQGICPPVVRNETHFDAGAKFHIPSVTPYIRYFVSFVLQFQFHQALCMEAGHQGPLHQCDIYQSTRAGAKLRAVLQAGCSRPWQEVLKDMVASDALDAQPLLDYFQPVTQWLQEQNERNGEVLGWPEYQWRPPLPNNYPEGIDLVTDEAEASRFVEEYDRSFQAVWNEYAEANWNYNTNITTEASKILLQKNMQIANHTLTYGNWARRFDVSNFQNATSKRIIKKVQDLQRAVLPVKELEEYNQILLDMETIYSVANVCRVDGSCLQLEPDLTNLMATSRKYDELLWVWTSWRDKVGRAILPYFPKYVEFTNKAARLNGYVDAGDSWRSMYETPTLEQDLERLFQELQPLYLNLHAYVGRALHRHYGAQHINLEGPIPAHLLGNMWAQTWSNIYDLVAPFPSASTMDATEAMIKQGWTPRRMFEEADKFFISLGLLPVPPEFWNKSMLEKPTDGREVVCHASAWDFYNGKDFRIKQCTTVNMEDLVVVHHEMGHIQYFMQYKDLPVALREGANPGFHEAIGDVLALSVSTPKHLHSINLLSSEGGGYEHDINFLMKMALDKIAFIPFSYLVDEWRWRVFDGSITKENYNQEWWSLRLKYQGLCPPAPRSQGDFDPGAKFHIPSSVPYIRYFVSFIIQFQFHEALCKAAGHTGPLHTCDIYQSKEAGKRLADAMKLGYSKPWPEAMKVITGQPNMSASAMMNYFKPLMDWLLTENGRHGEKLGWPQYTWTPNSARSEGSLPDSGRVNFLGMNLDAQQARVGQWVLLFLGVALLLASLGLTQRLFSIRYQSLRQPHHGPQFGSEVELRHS
As to the kind of experiment: In vitro ACE inhibitory activity (hippuryl-L-histidyl-L-leucine substrate). The following applies: 37° C., 30 minutes, pH 8.3. The experiment is classed as biochemical. The protocol: The assay medium contained an ACE preparation (rabbit lung), synthetic substrate (hippuryl-L-histidyl-L-leucine 5 mM), NaCl (300 mM) and phosphate buffer (100 mM, pH 8.3). It was mixed to a final volume of 0.300 ml and incubated at 37° C. for 30 minutes in the presence or absence of test compounds. After the reaction was terminated by adding 300 μl of 1N HCl, hippuric acid formed was extracted with 2 volume of ethyl acetate. After ethyl acetate was evaporated and distilled water was added, the hippuric acid was determined from its absorbance at 228 nm by spectrophotometer (Hitachi 100-41).
The degree of ACE inhibition was calculated from activities with and without test compounds. The IC50 value (molar concentration required for the 50% inhibition of ACE activity) was obtained from a dose-inhibition curve.

Starred links: 1 amine or outer side, 2 acyl side, 3 side chain; linkers in the order of their positions; H or OH if unused. Non-standard residues stand in square brackets, D forms with d. Residues, ends and D or L forms follow the SMILES beside them. *: point of attachment. d(γGlu) = O=C(O)[C@@H](CCC(=O)[*:2])N[*:1]; Oic = O=C(O)[C@@H]1C[C@@H]2CCCC[C@@H]2N1; Nicotinoyl = O=C(c1cccnc1)*; Orn = NCCC[C@H](N)C(=O)O; Cbz = O=C(OCc1ccccc1)*; Bz = O=C(c1ccccc1)*

As to `COc1ccc(CCOC(=O)N[C@@H](CCCCN)C(=O)N[C@H](CCC(=O)N2c3ccccc3C[C@H]2C(=O)O)C(=O)O)cc1` [Example 28, 1-[N^2-(4-Methoxyphenylethoxycarbonyl)-L-lysyl-gamma-D-glutamyl]indoline-2(S)-carboxylic acid], the IC50 (usually the midpoint of a concentration-inhibition curve) was 11 nM.

`NCCCC[C@H](NC(=O)c1ccco1)C(=O)N[C@H](CCC(=O)N1c2ccccc2C[C@H]1C(=O)O)C(=O)O` [Example 8, 1-[N^2-(2-Furoyl)-L-lysyl-gamma-D-glutamyl]indoline-2(S)-carboxylic acid] gave a half-inhibitory concentration (IC50) of 23 nM.

The compound `NCCCC[C@H](NC(=O)c1cccnc1Cl)C(=O)N[C@H](CCC(=O)N1[C@H](C(=O)O)C[C@@H]2CCCC[C@@H]21)C(=O)O` [Example 54, (2S,3aS,7aS)-1-[N^2-(2-Chloronicotinoyl)-L-lysyl-gamma-D-glutamyl]octahydro-1H-indole-2-carboxylic acid] registered an IC50 of 5.9 nM.

In turn, `NCCC[C@H](NC(=O)OCc1ccccc1)C(=O)N[C@H](CCC(=O)N1[C@H](C(=O)O)C[C@@H]2CCCC[C@@H]21)C(=O)O` [Example 14, (2S,3aS,7aS)-1-(N^2 -Benzyloxycarbonyl-L-ornithinyl-gamma-D-glutamyl)octahydro-1H-indole-2-carboxylic acid] (Cbz-[Orn]-[d(γGlu)]-[Oic]-OH) displayed an IC50 of 4.9 nM.

Compound `NCCCC[C@H](NC(=O)c1cnccn1)C(=O)N[C@H](CCC(=O)N1c2ccccc2C[C@H]1C(=O)O)C(=O)O` [Example 68, 1-(N^2 -Pyrazinoyl-L-lysyl-gamma-D-glutamyl)indoline-2(S)-carboxylic acid] registered an IC50 of 16 nM.

In turn, `NCCCC[C@H](NC(=O)c1cccnc1)C(=O)N[C@H](CCC(=O)N1[C@H](C(=O)O)C[C@@H]2CCCC[C@@H]21)C(=O)O` [Example 69, Monosodium (2S,3aS,7aS)-1-(N^2-nicotinoyl-L-lysyl-gamma-D-glutamyl)octahydro-1H-indole-2-carboxylate] (Nicotinoyl-Lys-[d(γGlu)]-[Oic]-OH) showed an IC50 of 7.8 nM.

With `NCCCC[C@H](NC(=O)OCC1CCCCC1)C(=O)N[C@H](CCC(=O)N1c2ccccc2C[C@H]1C(=O)O)C(=O)O` [Example 16, 1-(N^2 -Cyclohexylmethoxycarbonyl-L-lysyl-gamma-D-glutamyl)indoline-2(S)-carboxylic acid], 13 nM corresponded to half-maximal inhibition (IC50).

In turn, `NCCCC[C@H](NC(=O)c1cccnc1)C(=O)N[C@H](CCC(=O)N1c2ccccc2C[C@H]1C(=O)O)C(=O)O` [Example 35, 1-(N^2 -Nicotinoyl-L-lysyl-gamma-D-glutamyl)indoline-2(S)-carboxylic acid] gave an IC50 of 11 nM.

Compound `NCCCC[C@H](NC(=O)OCc1ccccc1)C(=O)N[C@H](CCC(=O)N1c2ccccc2C[C@H]1C(=O)O)C(=O)O` [Example 1, 1-(N^2 -Benzyloxycarbonyl-L-lysyl-gamma-D-glutamyl)indoline-2(S)-carboxylic acid] yielded an IC50 of 5.6 nM.

`COc1ccccc1C(=O)N[C@@H](CCCCN)C(=O)N[C@H](CCC(=O)N1[C@H](C(=O)O)C[C@@H]2CCCC[C@@H]21)C(=O)O` [Example 70, (2S,3aS,7aS)-1-[N^2-(2-Methoxybenzoyl)-L-lysyl-gamma-D-glutamyl]octahydro-1H-indole-2-carboxylic acid] gave an IC50 of 5.4 nM.

The compound `NCCCC[C@H](NC(=O)C1CCC1)C(=O)N[C@H](CCC(=O)N1c2ccccc2C[C@H]1C(=O)O)C(=O)O` [Example 36, 1-(N^2 -Cyclobutanecarbonyl-L-lysyl-gamma-D-glutamyl)-indoline-2(S)-carboxylic acid] registered an IC50 of 22 nM.

Consider `NCCCC[C@H](NC(=O)C=Cc1c[nH]cn1)C(=O)N[C@H](CCC(=O)N1c2ccccc2C[C@H]1C(=O)O)C(=O)O` [Example 10, 1-{N^2-[3-(4-Imidazolyl)-propenoyl]-L-lysyl-gamma-D-glutamyl}indoline-2(S)-carboxylic acid], for which the IC50 was found to be 95 nM.

The compound `NCCCC[C@H](NC(=O)OC1CCCC1)C(=O)N[C@H](CCC(=O)N1c2ccccc2C[C@H]1C(=O)O)C(=O)O` [Example 37, 1-(N^2 -Cyclopentyloxycarbonyl-L-lysyl-gamma-D-glutamyl)indoline-2(S)-carboxylic acid] displayed a half-maximal inhibitory concentration (IC50) of 5.1 nM.

As for `NCCCC[C@H](NC(=O)OC1CCC1)C(=O)N[C@H](CCC(=O)N1[C@H](C(=O)O)C[C@@H]2CCCC[C@@H]21)C(=O)O` [Example 32, (2S,3aS,7aS)-1-[N^2-(Cyclobutyloxycarbonyl)-L-lysyl-gamma-D-glutamyl]octahydro-1H-indole-2-carboxylic acid], the IC50 turned out to be 4.6 nM.

Consider `NCCCC[C@H](NC(=O)OC1CCCCC1)C(=O)N[C@H](CCC(=O)N1c2ccccc2C[C@H]1C(=O)O)C(=O)O` [Example 4, 1-(N^2 -Cyclohexyloxycarbonyl-L-lysyl-gamma-D-glutamyl)indoline-2(S)-carboxylic acid], for which the IC50 is 8.4 nM.

In turn, `NCCCC[C@H](NC(=O)OC1CCC1)C(=O)N[C@H](CCC(=O)N1c2ccccc2C[C@H]1C(=O)O)C(=O)O` [Example 33, 1-(N^2 -Cyclobutyloxycarbonyl-L-lysyl-gamma-D-glutamyl)indoline-2(S)-carboxylic acid] gave a half-maximal inhibitory concentration (IC50) of 14 nM.

The compound `NCCCC[C@H](NC(=O)c1ccccc1)C(=O)N[C@H](CCC(=O)N1c2ccccc2C[C@H]1C(=O)O)C(=O)O` [Example 39, 1-(N^2 -Benzoyl-L-lysyl-gamma-D-glutamyl)indoline-2(S)-carboxylic acid] registered an IC50 of 11 nM.

Turning to `NCCCC[C@H](NC(=O)OCCc1ccccc1)C(=O)N[C@H](CCC(=O)N1c2ccccc2C[C@H]1C(=O)O)C(=O)O` [Example 3, 1-(N^2 -Phenethyloxycarbonyl-L-lysyl-gamma-D-glutamyl)indoline-2(S)-carboxylic acid], it took 13 nM to reach half-maximal inhibition (IC50).

`NCCCC[C@H](NC(=O)c1cnc2ccccc2c1)C(=O)N[C@H](CCC(=O)N1[C@H](C(=O)O)C[C@@H]2CCCC[C@@H]21)C(=O)O` [Example 53, (2S,3aS,7aS)-1-[N^2-(3-Quinolinecarbonyl)-L-lysyl-gamma-D-glutamyl]octahydro-1H-indole-2-carboxylic acid]: the IC50 came out at 4.6 nM.

On to `NCCCC[C@H](NC(=O)[C@H]1CCCN1)C(=O)N[C@H](CCC(=O)N1c2ccccc2C[C@H]1C(=O)O)C(=O)O` [Example 17, 1-(D-Prolyl-L-lysyl-gamma-D-glutamyl)indoline-2(S)-carboxylic acid], for which the half-inhibitory concentration (IC50) was 21 nM.

Regarding `NCCCC[C@H](NC(=O)[C@@H]1Cc2ccccc2N1)C(=O)N[C@H](CCC(=O)N1[C@H](C(=O)O)C[C@@H]2CCCC[C@@H]21)C(=O)O` [Example 56, (2S,3aS,7aS)-1-[N^2-(Indoline-2(S)-carbonyl)-L-lysyl-gamma-D-glutamyl]octahydro-1H-indole-2-carboxylic acid], the IC50 came out at 8.2 nM.

In turn, `NCCCC[C@H](NC(=O)c1ccccc1)C(=O)N[C@H](CCC(=O)N1[C@H](C(=O)O)C[C@@H]2CCCC[C@@H]21)C(=O)O` [Example 27, (2S,3aS,7aS)-1-(N^2 -Benzoyl-L-lysyl-gamma-D-glutamyl)octahydro-1H-indole-2-carboxylic acid] (Bz-Lys-[d(γGlu)]-[Oic]-OH) yielded an IC50 of 5.4 nM.

In the case of `NCCCC[C@H](NC(=O)c1ccccn1)C(=O)N[C@H](CCC(=O)N1[C@H](C(=O)O)C[C@@H]2CCCC[C@@H]21)C(=O)O` [Example 20, (2S,3aS,7aS)-1-[N^2-(Pyridine-2-carbonyl)-L-lysyl-gamma-D-glutamyl]octahydro-1H-indole-2-carboxylic acid], the IC50 is 6.8 nM.

`NCCCC[C@H](NC(=O)OC1CCCCC1)C(=O)N[C@H](CCC(=O)N1[C@H](C(=O)O)C[C@@H]2CCCC[C@@H]21)C(=O)O` [Example 31, (2S,3aS,7aS)-1-(N^2 -Cyclohexyloxycarbonyl-L-lysyl-gamma-D-glutamyl)octahydro-1H-indole-2-carboxylic acid] registered an IC50 of 5 nM.
